Measured values published in US8937167B2 (Washington University, priority 2009, dated 2015).
Where two headings read alike, the source gives them in different places.

Experiments:
[1] = test system: UTI89 biofilm; assay: UTI89 type 1 dependent biofilm formation (inhibition/prevention) assay on PVC, crystal violet; format: cell-based, uropathogenic E. coli UTI89; settings: Escherichia coli
Description: In yet other embodiments, activity of the compound may be measured using the ability of the compound to prevent or disrupt biofilm formation.
UTI89 biofilm was grown in LB+/− mannoside for 24 h at 22° C. in PVC plates and quantitated using crystal violet. UTI89 biofilm for confocal microscopy was grown in LB for 24 h at 22° C. on PVC coverslips. Mannoside was then added and biofilm was grown for an additional 16 h. Coverslips were then washed in PBS, fixed in 2% paraformaldehyde and stained with SYTO9 prior to confocal microscopy. For all animal experiments UTI89 or PBC-1 was grown 2×24 h statically in LB at 37° C. and inoculated at a dose of 1×10^7 bacteria in 50 μl. All mice used were female C3H/HeN (Jackson). For the pretreatment studies, bacteria were incubated with mannoside for 20 min prior to inoculation into the mouse. […] For CFU counts, bladders were harvested at 6 hpi and placed in 1 mL PBS. Bladders were then homogenized, diluted and plated on LB. After growth at 37° C. overnight, bacterial counts were determined. LacZ staining and gentamicin protection assays were performed at 6 hpi. […] Water was changed daily with fresh antibiotics. Standard growth curve assays and hemagglutination assays were performed with TMP-SMZ. All statistical analysis performed was a two-tailed Mann-Whitney U test.
(§1) Biofilm assay. UTI89 was grown in LB broth in wells of PVC microtiter plates at 23° C. in the presence of individual mannosides at varying concentrations. After 48 h of growth, wells were rinsed with water and stained with crystal violet for quantification as described. For biofilm disruption activity in PVC plates, UTI89 was grown in LB broth in wells of PVC microtiter plates at 23° C. After 24 h of growth, mannoside was added and biofilms were grown for an additional 16 h. Wells were then rinsed, stained with crystal violet and quantified. For biofilm disruption activity on PVC coverslips, UTI89 was grown in LB broth in 50 mL conicals containing PBC coverslips at 23° C. After 24 h of growth, 0.3 μM ZFH-2056 was added and biofilm was grown for an additional 16 h.
UTI89 biofilm was grown in LB+/− mannoside for 24 h at 22° C. in PVC plates and quantified using crystal violet. UTI89 biofilm for confocal microscopy was grown in LB for 24 h at 22° C. on PVC coverslips followed by mannoside treatment for 16 h. For all animal experiments UTI89 or PBC-1 was grown 2×24 h statically in LB at 37° C. and inoculated at a dose of 1×10^7 bacteria in 50 μl. All mice used were female C3H/HeN (Harlan). For the chronic UTI model, mice were infected for 2 weeks prior to treatment with mannoside. […] For oral dosing, 100 μl of 10 mg/ml (50 mg/kg) or 20 mg/ml (100 mg/kg) mannoside in 8% DMSO was inoculated with a gavage needle 30 min prior to inoculation of bacteria. […] For CFU counts, bladders were harvested at 6 hpi and placed in 1 mL PBS. Bladders were then homogenized, diluted and plated on LB. After growth at 37° C. overnight, bacterial counts were determined. LacZ staining and gentamicin protection assays were performed at 6 hpi. […] Water was changed daily with fresh antibiotics. Standard growth curve and hemagglutination assays were performed. All statistical analysis performed was a two-tailed Mann-Whitney U test. […] Compounds 7-10 were prepared using slightly modified procedures. All compounds are >95% pure as determined by HPLC/MS and ^1H NMR.
as §1, with “UTI89” for “Biofilm assay. UTI89”, “For biofilm disruption activity on PVC coverslips, UTI89 was grown in LB broth in 50 mL conicals containing PBC coverslips at 23° C. After 24 h of growth, 0.3 μM ZFH-2056 was added and biofilm was grown for an additional 16 h.” left out

[2] = target: FimH (Escherichia coli, UniProt P08191); assay: biochemical; format: binding, E. coli
Description: In order to more accurately determine the relative contributions of both binding affinity to FimH versus other compound properties to the potency seen in the cellular HA titer assay, a high-throughput fluorescence polarization (FP) (or anisotropy) competitive binding assay was developed using a fluorescent-labeled mannoside ligand shown in Scheme 4.
A fluorescent polarization assay was developed and miniaturized to monitor the direct binding of a synthesized fluorescently labeled butyl mannose derivative to the FimH receptor as well as competitive displacement by other synthetic mannosides. This fluorescent polarization assay provides a rapid method for monitoring improvements to receptor affinity during the synthetic process, as well as providing Kd binding affinity measurements.

[3] = target: T1, FimH (Escherichia coli, UniProt Q1R2J4);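 note: hemagglutination inhibition of guinea pig erythrocytes agglutinated by type 1 piliated uropathogenic E. coli via FimH mannose binding, quantified through serial dilutions of compound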
[4] = target: T1, FimH; assay: cell-based; settings: for EC90: read-out: HAI Titer EC90
[5] = target: T2, FimH lectin domain (residues 1-158 of UPEC J96 FimH) (Escherichia coli, UniProt P08191); format: binding; settings: Table 20; compound at 100 μM
T2 construct: made in house
Description: DSF measures the melting temperature change of protein when binding to small molecules. Melting temperature shifts are proportional to the free energy of binding, and melting temperatures increase even as ligand concentration exceeds the Kd.
FimH lectin domain (residues 1-158 of UPEC J96 FimH, without an affinity tag) was purified as described previously. Five micrograms FimH in 5 μl HBS were mixed with HBS to yield a final volume of 50 μl containing compound at a final concentration of 100 μM and a “5×” final concentration of SYPRO Orange (sold as a “5000×” stock in DMSO and mixed with HBS to a working stock of 50× immediately before use: Life Technologies Inc.; Grand Island, N.Y.). Compounds were diluted to 100 μM from stocks in DMSO and compared to matched control wells with FimH alone plus 0.2% DMSO. 50 μl reactions were placed in 96-well clear-bottom PCR plates and subjected to a melt curve from 20-90° C. in 0.5° C. increments of 15 seconds each followed by a fluorescence read of the “HEX” channel in a Bio-Rad CFX96 thermocycler (Bio-Rad, Hercules, Calif.). Melt curves were fitted to the Boltzmann equation to determine the melting temperature (Tm) (y=A2+(A1−A2)/(1+exp((x−x0)/dx)) where x0 is the Tm) using OriginPro 8 (OriginLab, Northampton Mass.).

[6] = read-out: Biofilm IC50 (approximated)
[7] = FP Binding EC50, Table 13, competition with FAM mannoside 20
[8] = FimH EC50 (μM)-June 30, June 30 determination
[9] = Table 18, Examples 30-36 numbering
[10] = Table 19, Examples 30-36 numbering
[11] = Table 20, Examples 30-36 numbering
[12] = read-out: Biofilm IC50 [calculated]

Q: Which IC50 [1, 6] does the source give for `NC(=O)c1cccc(-c2ccc(OC3OC(CO)C(O)C(O)C3O)cc2)c1` (centres unmarked) [Compound 2ZFH32, 3-[4-[3,4,5-trihydroxy-6-(hydroxymethyl)tetrahydropyran-2-yl]oxyphenyl]benzamide] here?
A: ~3000 nM

Q: And the EC50 [2, 7]?
A: 0.078 µM

Q: And the EC50 ([2]; FimH EC50)?
A: 0.057 µM

Q: What about the EC50 [2, 8] of the same molecule?
A: 0.136 µM

Q: And the “HAI Titer EC>90” value [3]?
A: 2.000 µM

Q: And the EC50 [4]?
A: 2000 nM

Q: With `CN1CCN(C(=O)c2cccc(-c3ccc(O[C@H]4O[C@H](CO)[C@@H](O)[C@H](O)[C@@H]4O)cc3)c2)CC1` [Compound 10d, (4-Methylpiperazin-1-yl)-[3-[4-[(2R,3S,4S,5S,6R)-3,4,5-trihydroxy-6-(hydroxymethyl)tetrahydropyran-2-yl]oxyphenyl]phenyl]methanone] as the molecule, how does the “HAI Titer EC>90” value [3, 9] read?
A: 4.0 µM

Q: What about the EC90 [4] of the same molecule?
A: 4000 nM

Q: Which results are given for `CS(=O)(=O)Nc1cccc(-c2ccc(OC3OC(CO)C(O)C(O)C3O)cc2)c1` (centres unmarked) [Compound 3ZFH166, N-[3-[4-[3,4,5-trihydroxy-6-(hydroxymethyl)tetrahydropyran-2-yl]oxyphenyl]phenyl]methanesulfonamide]?
A: EC50 [2, 7]: 0.097 µM; HAI Titer EC>90 [3]: 2.000 µM; EC50 [4]: 2000 nM

Q: `O=[N+]([O-])c1ccc(O[C@H]2O[C@H](CO)[C@@H](O)[C@H](O)[C@@H]2O)cc1` [Compound 3b] was tested. Which EC50 [4] did it give?
A: 31000 nM

Q: What does the source list for `O=C(c1cccc(-c2ccc(O[C@H]3O[C@H](CO)[C@@H](O)[C@H](O)[C@@H]3O)cc2)c1)N1CCNCC1` [Compound 10c, Piperazin-1-yl-[3-[4-[(2R,3S,4S,5S,6R)-3,4,5-trihydroxy-6-(hydroxymethyl)tetrahydropyran-2-yl]oxyphenyl]phenyl]methanone]?
A: HAI Titer EC>90 [3, 9]: 4.0 µM; EC90 [4]: 4000 nM

Q: With `COC(=O)c1cc(-c2ccc(O[C@H]3O[C@H](CO)[C@@H](O)[C@H](O)[C@@H]3O)cc2)ccn1` [Compound 12a, Methyl 4-[4-[(2R,3S,4S,5S,6R)-3,4,5-trihydroxy-6-(hydroxymethyl)tetrahydropyran-2-yl]oxyphenyl]pyridine-2-carboxylate] as the molecule, how does the “DSF Melting Temp.” value [5] read?
A: 73.68 °C

Q: And the “HAI Titer EC>90” value [3, 10]?
A: 0.50 µM

Q: And the “HAI Titer EC>90” value [3, 11]?
A: 0.500 µM

Q: `COC(=O)c1ccc(OC2OC(CO)C(O)C(O)C2O)cc1` (centres unmarked) [Compound 1ZFH53, methyl 4-[3,4,5-trihydroxy-6-(hydroxymethyl)tetrahydropyran-2-yl]oxybenzoate] was tested. Which IC50 [1, 6] did it give?
A: 10000 to 100000 nM

Q: What about the IC50 [1, 12] of the same molecule?
A: ~62000 nM

Q: And the EC50 [2, 7]?
A: 0.064 µM

Q: What about the EC50 ([2]; FimH EC50) of the same molecule?
A: 0.058 µM

Q: What about the EC50 [2, 8] of the same molecule?
A: 0.0696 µM

Q: And the “HAI Titer EC>90” value [3]?
A: 8.000 µM

Q: And the EC50 [4]?
A: 8000 nM

Q: How did the “HAI Titer EC>90” value [3] turn out when `O=C(O)c1cccc(OC2OC(CO)C(O)C(O)C2O)c1` (centres unmarked) [Compound 1ZFH216, 3-[3,4,5-trihydroxy-6-(hydroxymethyl)tetrahydropyran-2-yl]oxybenzoic acid] was run?
A: 60.000 µM

Q: And the EC50 [4]?
A: 60000 nM

Q: `OC[C@H]1O[C@H](Oc2ccccc2)[C@@H](O)[C@@H](O)[C@@H]1O` [Compound 3a, phenyl mannoside] was tested. Which EC50 [4] did it give?
A: 30000 nM

Q: How did the “DSF Melting Temp.” value [5] turn out when `O=C(Nc1cccnc1)c1cccc(-c2ccc(O[C@H]3O[C@H](CO)[C@@H](O)[C@H](O)[C@@H]3O)cc2)c1` [Compound 10f, N-(3-Pyridyl)-3-[4-[(2R,3S,4S,5S,6R)-3,4,5-trihydroxy-6-(hydroxymethyl)tetrahydropyran-2-yl]oxyphenyl]benzamide] was run?
A: 72.53 °C

Q: What about the “HAI Titer EC>90” value [3, 9] of the same molecule?
A: 0.37 µM

Q: And the “HAI Titer EC>90” value [3, 11]?
A: 0.375 µM

Q: Which “HAI Titer EC>90” value [3] does the source give for `OCC1OC(Oc2ccc(Cl)cc2)C(O)C(O)C1O` (centres unmarked) [Compound 2ZFH178, 2-(4-chlorophenoxy)-6-(hydroxymethyl)tetrahydropyran-3,4,5-triol] here?
A: 32.000 µM

Q: What about the EC50 [4] of the same molecule?
A: 32000 nM

Q: How did the “HAI Titer EC>90” value [3, 10] turn out when `COC(=O)c1sc(-c2ccc(O[C@H]3O[C@H](CO)[C@@H](O)[C@H](O)[C@@H]3O)cc2)cc1NC(N)=O` [Compound 13a, Methyl 5-[4-[(2R,3S,4S,5S,6R)-3,4,5-trihydroxy-6-(hydroxymethyl)tetrahydropyran-2-yl]oxyphenyl]-3-ureido-thiophene-2-carboxylate] was run?
A: 0.02 µM

Q: What about the EC90 [4] of the same molecule?
A: 16 nM

Q: What does the source list for `COC(=O)c1cccc(-c2ccc(OC3OC(CO)C(O)C(O)C3O)cc2)c1` (centres unmarked) [Compound 8e]?
A: EC50 [2, 7]: 0.052 µM; fold improvement in HA titer ([3]; relative to 6 (4-methylumbellferyl-α-D-mannoside)): 2 fold; fold more potent in HA titer ([3]; relative to Methylaman): greater than 1000 fold; EC50 [4]: 1000 nM

Q: What does the source list for `NC(=O)c1ccc(OC2OC(CO)C(O)C(O)C2O)cc1` (centres unmarked) [Compound 1ZFH157, 4-[3,4,5-trihydroxy-6-(hydroxymethyl)tetrahydropyran-2-yl]oxybenzamide]?
A: HAI Titer EC>90 [3]: 15.000 µM; EC50 [4]: 15000 nM

Q: Which results are given for `O=C(O)c1cccc(-c2ccc(OC3OC(CO)C(O)C(O)C3O)cc2)c1` (centres unmarked) [Compound 14c]?
A: EC50 [2, 7]: 0.099 µM; EC50 [4]: 4000 nM

Q: For `N#Cc1ccc(OC2OC(CO)C(O)C(O)C2O)cc1` (centres unmarked) [Compound 1ZFH65, 4-[3,4,5-6-trihydroxy-6-(hydroxymethyl)tetrahydropyran-2-yl]oxybenzonitrile], which “HAI Titer EC>90” value [3] is on record?
A: 30.000 µM

Q: And the EC50 [4]?
A: 30000 nM

Q: For `COC(=O)c1cccc(-c2ccc(O[C@H]3O[C@H](CO)[C@@H](O)[C@H](O)[C@@H]3O)c(C)c2)c1` [Compound 4c, Methyl 3-[3-methyl-4-[(2R,3S,4S,5S,6R)-3,4,5-trihydroxy-6-(hydroxymethyl)tetrahydropyran-2-yl]oxy-phenyl]benzoate], which IC50 ([1]; read-out: Biofilm Prevention IC50) is on record?
A: 330 nM

Q: And the “HAI Titer EC>90” value ([3]; Table 17, Examples 30-36 numbering)?
A: 0.12 µM

Q: What about the “fold better HAI activity” value ([3]; relative to matched pair 1, Examples 30-36 numbering) of the same molecule?
A: 8 fold

Q: What about the EC90 [4] of the same molecule?
A: 120 nM

Q: How did the IC50 [1, 6] turn out when `N#Cc1cccc(OC2OC(CO)C(O)C(O)C2O)c1` (centres unmarked) [Compound 1ZFH102, 3-[3,4,5-trihydroxy-6-(hydroxymethyl)tetrahydropyran-2-yl]oxybenzonitrile] was run?
A: 10000 to 100000 nM

Q: And the IC50 [1, 12]?
A: ~45500 nM

Q: And the EC50 ([2]; FimH EC50)?
A: 0.116 µM

Q: What about the EC50 [2, 8] of the same molecule?
A: 0.209 µM

Q: And the “HAI Titer EC>90” value [3]?
A: 23.000 µM
